Source: patent US20240254186A1, “GLP-1 Receptor Agonists Having Improved Pharmacological and Drug Delivery Properties” (priority 2021, published 2024)
Read-outs that look alike come from different tables or passages of the source. Numbered stars: 1 amine (or outer) side, 2 acyl side, 3 side chain; on linkers, the order of the positions; unused ones are H or OH. Square brackets hold non-standard residues; d marks the D form. Side chains are listed from the residue outwards. Peptide text beside a SMILES is read from it. * marks the point of attachment. ξ: configuration not given here. Dap(Nα-HOOC(CH2)16CO)OH = O=C(O)CCCCCCCCCCCCCCCCC(=O)N[C@@H](CN*)C(=O)O; X5 = O=C(O)CCCCCCCCCCCCCCCc1cn(-c2ccc(C[C@H](N[*:1])C(=O)[*:2])cc2)nn1; X3 = O=C(O)CCCCCCCCCCCCCCCc1cnnn1-c1ccc(C[C@H](N[*:1])C(=O)[*:2])cc1; X6 = O=C([C@H](CCc1ccc(OC(=O)[*:3])cc1)N[*:1])[*:2]; X7 = C[C@@](Cc1ccc(-c2ccccc2)cc1)(N[*:1])C(=O)[*:2]; X4 = C[C@](Cc1ccc(-c2ccccc2)cc1)(N[*:1])C(=O)[*:2]; Bip = N[C@@H](Cc1ccc(-c2ccccc2)cc1)C(=O)O; C18 diacid = O=C(O)CCCCCCCCCCCCCCCCC(=O)*; αMePhe(2-F) = C[C@](N)(Cc1ccccc1F)C(=O)O; γGlu = O=C(O)[C@H](CCC(=O)[*:2])N[*:1]; ξαMePhe(2-F) = CC(N)(Cc1ccccc1F)C(=O)O; hPhe = N[C@@H](CCc1ccccc1)C(=O)O; αMeF = C[C@](N)(Cc1ccccc1)C(=O)O; PEG4 = NCCOCCOCCOCCOCCC(=O)O; αMeP = C[C@@]1(C(=O)O)CCCN1; dDap = NC[C@@H](N)C(=O)O; ξαMeP = CC1(C(=O)O)CCCN1; ξαMeS = CC(N)(CO)C(=O)O; AEEA = NCCOCCOCC(=O)O; Aib = CC(C)(N)C(=O)O; CO = O=C([*:1])[*:2]

Biological target: T1, hGLP1 receptor (Homo sapiens, UniProt P43220)
T1 construct: expressed in transfected cells; host or cells: HEK (human embryonic kidney) cells co-expressing hGLP1 receptor and a CRE-Luciferase construct
Experiment: cAMP HTRF agonist assay in HEK cells co-expressing the hGLP1 receptor and CRE-Luciferase construct
Format: cell-based
Procedure: Human embryonic kidney cells (HEK) co-expressing the hGLP1 receptor and CRE-Luciferase construct were used to determine agonist potency in this assay. The cells were thawed briefly at 37° C., transferred to a sterile tube and re-suspended in complete media at 37° C. Cells were centrifuged at 1000 rpm for 5 minutes and cells collected; cells were re-suspended in assay buffer consisting of DPBS (GIBCO) with 500 μM of the phosphodiesterase inhibitor IBMX. […] The optimal cell density was determined to be 1000 cells/well; cells were added to wells in 384-well plates containing appropriate pre-prepared dilutions of compounds (test peptides or reference compound exendin-4), sealed and incubated with CO2 for 30 min. Test peptide solutions were diluted from 10 mM stock solutions; for most peptides an initial run was performed in duplicate from a maximal concentration of 1.0 μM, with 11 concentrations tested for each peptide using serial 1:3 dilution from this maximal concentration. […] The agonist assay was a homogeneous time-resolved fluorescence (HTRF) assay (Cisbio).
Following incubation of the cells for 30 minutes with test or reference peptides, 5 μL of the cAMP acceptor cAMP-d2, prepared previously as a working solution from frozen stock (1:20 dilution), was added to each well of the assay plate, along with 5 μL of anti-cAMP antibody-cryptate working solution (diluted 1:20 from frozen stock). The wells were incubated for 1 hour at room temperature, and fluorescence was then read at 665 and 615 nm with an Envision reader with TRF laser. Data were saved and analyzed using Prism software (GraphPad). Concentration-response analysis was performed using 4-parameter logistic fits of the resulting data, and EC50 values obtained for each test and reference compound.

[1] = read-out: cAMP EC50, nM (0.1% albumin), Table 6, C-terminal PK-modifier conjugates, 0.1% albumin
[2] = Table 6, cell annotated (0% albumin), read-out: cAMP EC50

T1 sequence (P43220 24-463): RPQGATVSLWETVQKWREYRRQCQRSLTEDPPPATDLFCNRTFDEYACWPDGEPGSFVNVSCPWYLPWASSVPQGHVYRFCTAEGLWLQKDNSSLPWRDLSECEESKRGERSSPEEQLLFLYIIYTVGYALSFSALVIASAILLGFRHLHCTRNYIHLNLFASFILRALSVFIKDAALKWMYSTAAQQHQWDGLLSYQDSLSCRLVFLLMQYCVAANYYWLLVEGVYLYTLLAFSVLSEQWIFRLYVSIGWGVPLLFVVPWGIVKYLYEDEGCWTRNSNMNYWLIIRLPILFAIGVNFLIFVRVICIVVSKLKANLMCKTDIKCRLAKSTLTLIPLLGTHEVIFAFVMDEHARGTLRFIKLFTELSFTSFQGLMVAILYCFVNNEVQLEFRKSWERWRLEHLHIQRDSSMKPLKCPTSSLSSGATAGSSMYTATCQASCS

Structure (SMILES) | EC50 [1] [nM] | EC50 [2] [nM] | also measured
C[C@@H](O)[C@H](NC(=O)CNC(=O)[C@H](CCC(=O)O)NC(=O)C(C)(C)NC(=O)[C@@H](N)Cc1c[nH]cn1)C(=O)N[C@@](C)(Cc1ccccc1F)C(=O)N[C@H](C(=O)N[C@@H](CO)C(=O)N[C@@H](CC(=O)O)C(=O)N[C@@H](Cc1ccc(-c2ccccc2)cc1)C(=O)N[C@@H](Cc1ccc(-c2ccccc2)cc1)C(=O)NCCOCCOCC(=O)NCCOCCOCC(=O)N[C@H](CNC(=O)CCCCCCCCCCCCCCCCC(=O)O)C(N)=O)[C@@H](C)O [4-46, H2N-His-Aib-Glu-Gly-Thr-α-MePhe(2-F)-Thr-Ser-Asp-Bip-Bip-C(O)NH-RY8] (H-H[Aib]EGT[αMePhe(2-F)]TSD[Bip][Bip][AEEA][AEEA][dDap](C18 diacid)-NH2) | 5.4 |  | 
C[C@@H](O)[C@H](NC(=O)CNC(=O)[C@H](CCC(=O)O)NC(=O)C(C)(C)NC(=O)[C@@H](N)Cc1c[nH]cn1)C(=O)N[C@@](C)(Cc1ccccc1)C(=O)N[C@H](C(=O)N[C@@H](CO)C(=O)N[C@@H](CC(=O)O)C(=O)N[C@@H](Cc1ccc(-c2ccccc2)cc1)C(=O)N[C@@H](Cc1ccc(-c2ccccc2)cc1)C(N)=O)[C@@H](C)O [3-17, H2N-His-Aib-Glu-Gly-Thr-α-MePhe-Thr-Ser-Asp-Bip-Bip-C(O)NH2] (H-H[Aib]EGT[αMeF]TSD[Bip][Bip]-NH2) |  |  | EC50 (Table 1, cell annotated (0% albumin), read-out: cAMP EC50): 0.08 nM
C[C@@H](O)[C@H](NC(=O)CNC(=O)[C@H](CCC(=O)O)NC(=O)C(C)(C)NC(=O)[C@@H](N)Cc1c[nH]cn1)C(=O)N[C@@](C)(Cc1ccccc1F)C(=O)N[C@H](C(=O)N[C@@H](CO)C(=O)N[C@@H](CC(=O)O)C(=O)N[C@@H](Cc1ccc(-c2ccccc2)cc1)C(=O)N[C@@H](CCc1ccccc1)C(=O)NCCOCCOCC(=O)NCCOCCOCC(=O)NC[C@H](NC(=O)CCCCCCCCCCCCCCCCC(=O)O)C(=O)O)[C@@H](C)O [4-36, H2N-His-Aib-Glu-Gly-Thr-α-MePhe(2-F)-Thr-Ser-Asp-Bip-Hph-C(O)NH-RY2] (H-H[Aib]EGT[αMePhe(2-F)]TSD[Bip][hPhe][AEEA][AEEA]-{Dap(Nα-HOOC(CH2)16CO)OH}) |  |  | potency relative to the parent peptide (1-4), fold less potent (versus parent 1-4): 15 fold
C[C@@H](O)[C@H](NC(=O)CNC(=O)[C@H](CCC(=O)O)NC(=O)[C@]1(C)CCCN1C(=O)[C@@H](N)Cc1c[nH]cn1)C(=O)N[C@@](C)(Cc1ccccc1F)C(=O)N[C@H](C(=O)N[C@@H](CO)C(=O)N[C@@H](CC(=O)O)C(=O)N[C@@H](Cc1ccc(-c2ccccc2)cc1)C(=O)N[C@@](C)(Cc1ccc(-c2ccccc2)cc1)C(N)=O)[C@@H](C)O [4-73-i1, H2N-His-α-MePro-Glu-Gly-Thr-α-MePhe(2F)-Thr-Ser-Asp-Bip-α-MeBip-C(O)NH2] (H-H[αMeP]EGT[αMePhe(2-F)]TSD[Bip][X7]-NH2) |  | 0.05 | 
C[C@@H](O)[C@H](NC(=O)CNC(=O)[C@H](CCC(=O)O)NC(=O)C1(C)CCCN1C(=O)[C@@H](N)Cc1c[nH]cn1)C(=O)NC(C)(Cc1ccccc1F)C(=O)NC(C)(CO)C(=O)N[C@@H](CO)C(=O)N[C@@H](CC(=O)O)C(=O)N[C@@H](Cc1ccc(-c2ccccc2)cc1)C(=O)N[C@@H](Cc1ccc(-c2ccccc2)cc1)C(N)=O (stereo partly shown) [3-59] (H-H[ξαMeP]EGT[ξαMePhe(2-F)][ξαMeS]SD[Bip][Bip]-NH2) |  |  | EC50 (cAMP EC50, nM (0.1% albumin), Table 4, N-terminal modifications, 0.1% albumin): 20.9 nM
C[C@@H](O)[C@H](NC(=O)CNC(=O)[C@H](CCC(=O)O)NC(=O)[C@]1(C)CCCN1C(=O)[C@@H](N)Cc1c[nH]cn1)C(=O)N[C@@](C)(Cc1ccccc1F)C(=O)N[C@H](C(=O)N[C@@H](CO)C(=O)N[C@@H](CC(=O)O)C(=O)N[C@@H](Cc1ccc(-c2ccccc2)cc1)C(=O)N[C@](C)(Cc1ccc(-c2ccccc2)cc1)C(N)=O)[C@@H](C)O [4-73-i2, H2N-His-α-MePro-Glu-Gly-Thr-α-MePhe(2F)-Thr-Ser-Asp-Bip-α-MeBip-C(O)NH2] (H-H[αMeP]EGT[αMePhe(2-F)]TSD[Bip][X4]-NH2) |  | 0.2 | 
C[C@@H](O)[C@H](NC(=O)CNC(=O)[C@H](CCC(=O)O)NC(=O)C(C)(C)NC(=O)[C@@H](N)Cc1c[nH]cn1)C(=O)N[C@@](C)(Cc1ccccc1F)C(=O)N[C@H](C(=O)N[C@@H](CO)C(=O)N[C@@H](CC(=O)O)C(=O)N[C@@H](Cc1ccc(-c2ccccc2)cc1)C(=O)N[C@@H](CCc1ccc(OC(=O)NCCOCCOCC(=O)NCCOCCOCC(=O)NC[C@H](NC(=O)CCCCCCCCCCCCCCCCC(=O)O)C(=O)O)cc1)C(N)=O)[C@@H](C)O [4-39, H2N-His-Aib-Glu-Gly-Thr-α-MePhe(2-F)-Thr-Ser-Asp-Bip-Hph(4-OR5)-C(O)NH2] (H-H[Aib]EGT[αMePhe(2-F)]TSD[Bip][X6]([AEEA-AEEA-Dap(Nα-HOOC(CH2)16CO)OH])-NH2) | 232 |  | 
C[C@@H](O)[C@H](NC(=O)CNC(=O)[C@H](CCC(=O)O)NC(=O)C(C)(C)NC(=O)[C@@H](N)Cc1c[nH]cn1)C(=O)N[C@@](C)(Cc1ccccc1F)C(=O)N[C@H](C(=O)N[C@@H](CO)C(=O)N[C@@H](CC(=O)O)C(=O)N[C@@H](Cc1ccc(-c2ccccc2)cc1)C(=O)N[C@H](Cc1ccc(OC(=O)NCCOCCOCC(=O)NCCOCCOCC(N)=O)cc1)C(N)=O)[C@@H](C)O [(D)-4-42, H2N-His-Aib-Glu-Gly-Thr-α-MePhe(2-F)-Thr-Ser-Asp-Bip-D-Tyr(O-R4)-C(O)NH2] (H-H[Aib]EGT[αMePhe(2-F)]TSD[Bip][dY]([CO-AEEA-AEEA-NH2])-NH2) | 791 |  | 
C[C@@H](O)[C@H](NC(=O)CNC(=O)[C@H](CCC(=O)O)NC(=O)[C@]1(C)CCCN1C(=O)[C@@H](N)Cc1c[nH]cn1)C(=O)N[C@@](C)(Cc1ccccc1F)C(=O)N[C@H](C(=O)N[C@@H](CO)C(=O)N[C@@H](CC(=O)O)C(=O)N[C@@H](Cc1ccc(-n2cc(CCCCCCCCCCCCCCCC(=O)O)nn2)cc1)C(=O)N[C@@H](Cc1ccc(-c2ccccc2)cc1)C(N)=O)[C@@H](C)O [4-71-i1, H2N-His-α-MePro-Glu-Gly-Thr-α-MePhe(2-F)-Thr-Ser-Asp-FN3(C18 acid)-Bip-C(O)NH2] (H-H[αMeP]EGT[αMePhe(2-F)]TSD[X5][Bip]-NH2) |  | 0.009 | 
C[C@@H](O)[C@H](NC(=O)CNC(=O)[C@H](CCC(=O)O)NC(=O)[C@]1(C)CCCN1C(=O)[C@@H](N)Cc1c[nH]cn1)C(=O)N[C@@](C)(Cc1ccccc1F)C(=O)N[C@H](C(=O)N[C@@H](CO)C(=O)N[C@@H](CC(=O)O)C(=O)N[C@@H](Cc1ccc(-n2nncc2CCCCCCCCCCCCCCCC(=O)O)cc1)C(=O)N[C@@H](Cc1ccc(-c2ccccc2)cc1)C(N)=O)[C@@H](C)O [4-71-i2, H2N-His-α-MePro-Glu-Gly-Thr-α-MePhe(2-F)-Thr-Ser-Asp-FN3(C18 acid)-Bip-C(O)NH2] (H-H[αMeP]EGT[αMePhe(2-F)]TSD[X3][Bip]-NH2) |  | 0.1 | 
C[C@@H](O)[C@H](NC(=O)CNC(=O)[C@H](CCC(=O)O)NC(=O)[C@]1(C)CCCN1C(=O)[C@@H](N)Cc1c[nH]cn1)C(=O)N[C@@](C)(Cc1ccccc1F)C(=O)N[C@H](C(=O)N[C@@H](CO)C(=O)N[C@@H](CC(=O)O)C(=O)N[C@@H](Cc1ccc(-c2ccccc2)cc1)C(=O)N[C@@H](Cc1ccc(-c2ccccc2)cc1)C(=O)NC(C)(C)C(=O)N[C@@H](CCCCNC(=O)CCOCCOCCOCCOCCNC(=O)CC[C@H](NC(=O)CCCCCCCCCCCCCCCCC(=O)O)C(=O)O)C(N)=O)[C@@H](C)O [4-65, H2N-His-α-MePro-Glu-Gly-Thr-α-MePhe(2-F)-Thr-Ser-Asp-Bip-Bip-C(O)NH-RY21] (H-H[αMeP]EGT[αMePhe(2-F)]TSD[Bip][Bip][Aib]K([PEG4-γGlu-C18 diacid])-NH2) | 3.8 |  | 
C[C@@H](O)[C@H](NC(=O)CNC(=O)[C@H](CCC(=O)O)NC(=O)C(C)(C)NC(=O)[C@@H](N)Cc1c[nH]cn1)C(=O)N[C@@](C)(Cc1ccccc1F)C(=O)N[C@H](C(=O)N[C@@H](CO)C(=O)N[C@@H](CC(=O)O)C(=O)N[C@@H](Cc1ccc(-c2ccccc2)cc1)C(=O)N[C@H](Cc1ccc(OC(=O)NCCOCCOCC(=O)NCCOCCOCC(=O)NC[C@H](NC(=O)CCCCCCCCCCCCCCCCC(=O)O)C(=O)O)cc1)C(N)=O)[C@@H](C)O [(D)-4-43, H2N-His-Aib-Glu-Gly-Thr-α-MePhe(2-F)-Thr-Ser-Asp-Bip-D-Tyr(O-R5)-C(O)NH2] (H-H[Aib]EGT[αMePhe(2-F)]TSD[Bip][dY]([CO-AEEA-AEEA-Dap(Nα-HOOC(CH2)16CO)OH])-NH2) | 693 |  | 
C[C@@H](O)[C@H](NC(=O)CNC(=O)[C@H](CCC(=O)O)NC(=O)[C@]1(C)CCCN1C(=O)[C@@H](N)Cc1c[nH]cn1)C(=O)N[C@@](C)(Cc1ccccc1F)C(=O)N[C@H](C(=O)N[C@@H](CO)C(=O)N[C@@H](CC(=O)O)C(=O)N[C@@H](Cc1ccc(-c2ccccc2)cc1)C(=O)N[C@@H](Cc1ccc(-c2ccccc2)cc1)C(N)=O)[C@@H](C)O [3-40, H2N-His-α-MePro-Glu-Gly-Thr-α-MePhe(2-F)-Thr-Ser-Asp-Bip-Bip-C(O)NH2] (H-H[αMeP]EGT[αMePhe(2-F)]TSD[Bip][Bip]-NH2) |  |  | potency compared with the parent peptide analog (1-2), in words (replacement of Aib2, versus parent 1-2): significantly greater potency
